Measurements: PubChem BioAssay (NCI)
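Briefly, cells in 96-well plates were exposed to five compound concentrations for 48 h, and endpoints were estimated by linear interpolation. At the GI50, growth is halved. TGI is the concentration that stops growth completely.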 Where a SMILES comes first, the peptide text is derived from it. [ ]: non-standard residue; d: D form. Phe(ol) = N[C@H](CO)Cc1ccccc1; dIva = CC[C@@](C)(N)C(=O)O; Aib = CC(C)(N)C(=O)O

System: MDA-MB-468 breast
Assay: inhibition of tumour cell growth, NCI panel, 48 h

Compound | GI50 [µM] | TGI [µM]
C=CCn1c2ccccc2c2c3c(c4c5ccccc5n(CC=C)c4c21)C(=O)N(O)C3=O | 3.88 | 41.9
Cc1nc2sc(C(=O)Nc3cccc(Br)c3C)c(N)c2cc1C(O)c1ccccc1 (stereo unspecified) | 0.0398 | 26
COc1cc(-c2nn(-c3ccc(NC(=O)Nc4cc(C(F)(F)F)cc(C(F)(F)F)c4)cc3)cc2-c2ccncc2)ccc1Cl | 1.45 | 3.35
Cc1ccc(/C=N/NC(=O)c2ccccc2Oc2ccccc2)o1 | 19.6 | 65.7
CC1=CC(=O)N(c2cccc3c(N4C(=O)C=C(C)C4=O)cccc23)C1=O | 2.09 | 5.51
NCCCNc1nc2ccccc2c2c(=O)c3cc(F)ccc3sc12 | 1.2 | 2.59
NC(=O)c1c(NC(=O)c2cccs2)sc2c1CCC(=O)C2 | 2.58 | 8.77
CCc1nc(C)cn1C(=O)OCc1nc2nc(Cl)nc(N3CCOCC3)c2[nH]1 | 0.925 | 2.46
Cc1sc(C(=O)c2cncnc2N[C@@H]2C[C@H](COS(N)(=O)=O)[C@@H](O)C2)cc1[C@@H]1NCCc2ccc(Cl)cc21 | 0.104 | 14.8
C/C=C/c1cc2c(cc1O)CC[C@@H]1[C@@H]2CC[C@]2(C)[C@@H](O)CC[C@@H]12 | 2.99 | 17.1
C=C1c2nc3ccccc3n2C=C(c2cccc(Cl)c2)N1Cc1ccc(OC)cc1 | 0.784 | 17.2
CC[C@@](C)(NC(=O)C(C)(C)NC(=O)[C@@H](NC(=O)[C@@H]1CCCN1C(=O)C(C)(C)NC(=O)[C@H](CC(C)C)NC(=O)CNC(=O)C(C)(C)NC(=O)[C@@H](NC(=O)C(C)(C)NC(=O)[C@H](CCC(N)=O)NC(=O)[C@H](C)NC(=O)C(C)(C)NC(=O)[C@H](C)NC(=O)C(C)(C)NC(=O)[C@@H]1CCCN1C(=O)C(C)(C)NC(C)=O)C(C)C)C(C)C)C(=O)N[C@@H](CCC(N)=O)C(=O)N[C@@H](CCC(N)=O)C(=O)N[C@H](CO)Cc1ccccc1 (Ac-[Aib]P[Aib]A[Aib]AQ[Aib]V[Aib]GL[Aib]PV[Aib][dIva]QQ[Phe(ol)]) | 0.867 | 3.67
Cc1ccc(C[As+](c2ccccc2)(c2ccccc2)c2ccccc2)cc1 | 0.185 | 1.08
O=C(Nc1ccncc1)C(=O)c1cn(S(=O)(=O)c2cccc(Cl)c2)c2ccccc12 | 0.763 | 45.3
CN(C)c1ccc(/C=C(\C#N)c2cc3ccccc3[nH]2)cc1 | 0.373 | 4.2
Oc1ccc2c(=S)cc(-c3ccc(Br)cc3)oc2c1O | 2.08 | 6.5
O=C(Oc1ccccc1)N(c1ccccc1)c1ccccc1 | 24 | 87.7
Cn1ncc(C#N)c1-c1ccc2c(c1)CN([C@H](CN)Cc1cccc(F)c1)C2=O | 0.105 | 2.97
Cn1c(CCCC(=O)O)nc2cc(N(CCCl)CCCl)ccc21 | 17.1 | > 100

Compound | GI50 [µM] | TGI [µM]
C=C1C(=O)O[C@H]2[C@H]1CC/C(COC(=O)c1cccnc1N)=C\CC[C@@]1(C)O[C@@H]21 | 0.958 | 4.18
COC(=O)[C@]12CC[C@@H](C)[C@H](C)[C@@H]1C1=CC[C@@H]3[C@@]4(C)C(C=O)=C[C@@](C)(CO)[C@@H]4[C@H](O)C[C@@]3(C)[C@]1(C)CC2 | 4.36 | 18.9
C#C[C@@]1(O)[C@@H](CO)O[C@@H](n2cc(Br)c3c(Cl)ccnc32)[C@@H]1O | 0.836 | > 31.6
CC12OC(CC(O)C1O)n1c3ccccc3c3c4c(c5c6ccccc6n2c5c31)C(=O)N(CCN1CCOCC1)C4=O (stereo unspecified) | 1.17 | 3.19
CN1CCN(CCCNC(=O)c2c3c(n4ccccc24)C(=O)c2ncccc2C3=O)CC1 | 0.637 | 1.86
CCN(CC)C1Oc2cc3c(cc2C(c2cc(OC)c(O)c(OC)c2)C1C)OCO3 (stereo unspecified) | 11.6 | 70.7
CCN1CCN(c2nc(C)cc(NCc3cc(Nc4ccnc5cc(Cl)ccc45)ccc3F)n2)CC1 | 1.55 | 3.51
CCCCC(=O)N(c1ccc(Nc2c3ccccc3nc3cc([N+](=O)[O-])ccc23)cc1)S(C)(=O)=O | 0.433 | 5.7
c1ccc(-c2[nH]ncc2-c2ccnc(-c3ccc(OCCN4CCOCC4)cc3)c2)nc1 | > 25 | > 25
O=C(Nc1nc(-c2ccc(Cl)cc2)cs1)c1cc(O)c(O)c(O)c1 | 213 | 2290
CCOc1cc(-c2nncn2C)ccc1Nc1ncc2cc(C)nc(NCC(C)(C)C)c2n1 | > 20.2 | > 100
COc1cc2c(cc1OC)C(C(CCCCCC(CCC(C)C)C1NCCc3cc(OC)c(OC)cc31)CCC(C)C)NCC2 (stereo unspecified) | 0.588 | 1.25
COc1ccc(Cn2cc(COc3cc(/C=C/C(=O)c4cc(OC)c(OC)c(OC)c4)ccc3OC)nn2)cc1 | 2.05 | 7
Cc1ccc(N)cc1[As]=[As]c1cc(N)ccc1C (stereo unspecified) | 0.243 | 0.944
O=C(O)CCC(c1ccccc1)(c1ccccc1)c1ccccc1 | 57.9 | > 100
COc1ccc(OC)c(Nc2nc3nonc3nc2Nc2cccc(Br)c2)c1 | 0.343 | 3.88
O=C(/C=C/c1ccccc1)c1cccc2ccccc12 | 2 | 5.64
O=C1/C(=C\c2ccc(F)cc2)CN(C(=O)c2ccccc2F)C/C1=C\c1ccc(F)cc1 | 1.51 | 3.4
COc1ccc2c(C3=C(c4cn(C)c5ccccc45)C(=O)NC3=O)coc2c1 | 0.278 | 3.48
